Results: article PMC5361737, “Potent and Selective KDM5 Inhibitor Stops Cellular Demethylation of H3K4me3 at Transcription Start Sites and Proliferation of MM1S Myeloma Cells” (Cell Chemical Biology, 2017)

What was measured:
[1] = target: NO66 (Homo sapiens, UniProt Q9H6W3); experiment: 2-Oxoglutarate oxygenase assay panel, RapidFire MS assay; assay type: biochemical; conditions: read-out: pIC50 NO66 (converted)
[2] = system: KDM5A-D; experiment: Biochemical inhibition of the KDM5 sub-family in vitro
[3] = system: other 2-OG oxygenases; experiment: Selectivity panel, other 2-OG oxygenases (AlphaScreen or MALDI-TOF); assay type: biochemical; conditions: AlphaScreen or MALDI-TOF enzymatic assays; read-out: no inhibition below (any of the other 2-OG oxygenases)
[4] = target: A3 (h) (Homo sapiens, UniProt P0DMS8); experiment: Cerep Express Panel, agonist radioligand; assay type: binding; conditions: read-out: % Inhibition of reference (10 µM)
[5] = target: CCK1 (CCKA) (h) (Homo sapiens, UniProt P32238); experiment: Cerep Express Panel, agonist radioligand; assay type: binding; conditions: read-out: % Inhibition of reference (10 µM)
[6] = target: T1, CCR1 (h) (Homo sapiens, UniProt P32246); experiment: Cerep Express Panel, agonist radioligand; assay type: binding; conditions: read-out: % Inhibition of reference (10 µM)
T1 sequence (P32246 1-355): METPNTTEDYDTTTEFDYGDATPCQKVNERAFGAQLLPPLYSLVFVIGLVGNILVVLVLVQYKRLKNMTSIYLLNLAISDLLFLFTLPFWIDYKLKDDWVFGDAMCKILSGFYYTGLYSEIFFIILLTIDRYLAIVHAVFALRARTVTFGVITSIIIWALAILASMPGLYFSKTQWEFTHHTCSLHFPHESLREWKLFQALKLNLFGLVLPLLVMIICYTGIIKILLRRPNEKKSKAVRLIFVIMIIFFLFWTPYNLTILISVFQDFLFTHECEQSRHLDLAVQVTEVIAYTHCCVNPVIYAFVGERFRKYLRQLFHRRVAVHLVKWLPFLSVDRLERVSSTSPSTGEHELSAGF

[7] = target: NK3 (h) (Homo sapiens, UniProt P29371); experiment: Cerep Express Panel, antagonist radioligand; assay type: binding; conditions: read-out: % Inhibition of reference (10 µM)
[8] = target: delta 2 (DOP) (h) (Homo sapiens, UniProt P41143); experiment: Cerep Express Panel, agonist radioligand; assay type: binding; conditions: read-out: % Inhibition of reference (10 µM)
[9] = target: 5-HT7 (h) (Homo sapiens, UniProt P34969); experiment: Cerep Express Panel, agonist radioligand; assay type: binding; conditions: read-out: % Inhibition of reference (10 µM)
Sequence of 5-HT7 (h) (P34969 whole entry): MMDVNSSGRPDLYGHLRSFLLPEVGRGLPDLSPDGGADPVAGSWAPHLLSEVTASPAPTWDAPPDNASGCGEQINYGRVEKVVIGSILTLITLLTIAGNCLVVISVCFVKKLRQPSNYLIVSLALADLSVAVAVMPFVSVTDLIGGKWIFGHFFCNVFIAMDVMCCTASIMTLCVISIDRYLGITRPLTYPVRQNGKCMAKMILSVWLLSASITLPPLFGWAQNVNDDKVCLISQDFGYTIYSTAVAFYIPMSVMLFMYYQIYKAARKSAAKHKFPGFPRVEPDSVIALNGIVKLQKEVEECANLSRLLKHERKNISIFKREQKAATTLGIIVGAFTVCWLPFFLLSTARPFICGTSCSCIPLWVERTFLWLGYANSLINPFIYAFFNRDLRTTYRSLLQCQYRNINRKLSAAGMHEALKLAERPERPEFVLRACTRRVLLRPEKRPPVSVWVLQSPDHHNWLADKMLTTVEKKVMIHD

Sequence of delta 2 (DOP) (h) (P41143 whole entry): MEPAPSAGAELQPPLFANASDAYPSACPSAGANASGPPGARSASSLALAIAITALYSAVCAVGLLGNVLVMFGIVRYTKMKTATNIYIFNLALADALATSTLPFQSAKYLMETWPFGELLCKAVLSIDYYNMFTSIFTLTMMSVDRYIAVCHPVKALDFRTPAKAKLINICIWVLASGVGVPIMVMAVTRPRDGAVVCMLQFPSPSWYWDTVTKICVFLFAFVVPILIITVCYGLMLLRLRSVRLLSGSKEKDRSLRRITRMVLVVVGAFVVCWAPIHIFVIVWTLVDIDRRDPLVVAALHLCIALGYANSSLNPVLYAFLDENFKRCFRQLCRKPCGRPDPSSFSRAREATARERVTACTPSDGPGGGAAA
Sequence of NK3 (h) (P29371 whole entry): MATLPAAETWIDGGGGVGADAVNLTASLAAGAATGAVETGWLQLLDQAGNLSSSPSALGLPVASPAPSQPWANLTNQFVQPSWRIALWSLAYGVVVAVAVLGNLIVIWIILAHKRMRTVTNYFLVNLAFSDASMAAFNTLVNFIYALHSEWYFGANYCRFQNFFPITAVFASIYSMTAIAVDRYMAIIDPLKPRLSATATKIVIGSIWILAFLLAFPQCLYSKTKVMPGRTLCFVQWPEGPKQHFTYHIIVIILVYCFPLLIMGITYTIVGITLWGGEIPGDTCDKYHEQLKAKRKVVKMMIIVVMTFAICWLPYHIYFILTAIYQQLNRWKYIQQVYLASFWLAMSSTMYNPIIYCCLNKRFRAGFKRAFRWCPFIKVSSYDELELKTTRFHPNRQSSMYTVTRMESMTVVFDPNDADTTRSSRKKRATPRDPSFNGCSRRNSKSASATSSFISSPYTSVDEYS
Sequence of CCK1 (CCKA) (h) (P32238 whole entry): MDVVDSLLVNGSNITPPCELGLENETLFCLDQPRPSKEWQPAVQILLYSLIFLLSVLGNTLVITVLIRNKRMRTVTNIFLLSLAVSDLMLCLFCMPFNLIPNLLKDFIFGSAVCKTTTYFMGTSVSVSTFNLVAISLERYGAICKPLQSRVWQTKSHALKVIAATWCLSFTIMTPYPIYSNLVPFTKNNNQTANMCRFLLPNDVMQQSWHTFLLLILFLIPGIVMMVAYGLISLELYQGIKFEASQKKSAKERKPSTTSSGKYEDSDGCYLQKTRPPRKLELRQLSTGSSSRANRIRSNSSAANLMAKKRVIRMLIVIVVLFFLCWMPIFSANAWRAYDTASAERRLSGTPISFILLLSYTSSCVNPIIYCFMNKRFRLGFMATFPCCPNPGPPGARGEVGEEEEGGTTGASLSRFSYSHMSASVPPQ
Sequence of A3 (h) (P0DMS8 whole entry): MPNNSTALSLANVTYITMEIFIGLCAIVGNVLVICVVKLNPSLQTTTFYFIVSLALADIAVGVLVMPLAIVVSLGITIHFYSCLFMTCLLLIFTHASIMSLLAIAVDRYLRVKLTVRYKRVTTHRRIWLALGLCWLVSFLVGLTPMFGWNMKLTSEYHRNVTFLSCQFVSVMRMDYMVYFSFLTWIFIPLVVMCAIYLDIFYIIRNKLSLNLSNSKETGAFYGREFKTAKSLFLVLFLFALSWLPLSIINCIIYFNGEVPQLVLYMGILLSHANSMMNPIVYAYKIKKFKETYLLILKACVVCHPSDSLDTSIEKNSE
Sequence of NO66 (Q9H6W3 whole entry, species assumed): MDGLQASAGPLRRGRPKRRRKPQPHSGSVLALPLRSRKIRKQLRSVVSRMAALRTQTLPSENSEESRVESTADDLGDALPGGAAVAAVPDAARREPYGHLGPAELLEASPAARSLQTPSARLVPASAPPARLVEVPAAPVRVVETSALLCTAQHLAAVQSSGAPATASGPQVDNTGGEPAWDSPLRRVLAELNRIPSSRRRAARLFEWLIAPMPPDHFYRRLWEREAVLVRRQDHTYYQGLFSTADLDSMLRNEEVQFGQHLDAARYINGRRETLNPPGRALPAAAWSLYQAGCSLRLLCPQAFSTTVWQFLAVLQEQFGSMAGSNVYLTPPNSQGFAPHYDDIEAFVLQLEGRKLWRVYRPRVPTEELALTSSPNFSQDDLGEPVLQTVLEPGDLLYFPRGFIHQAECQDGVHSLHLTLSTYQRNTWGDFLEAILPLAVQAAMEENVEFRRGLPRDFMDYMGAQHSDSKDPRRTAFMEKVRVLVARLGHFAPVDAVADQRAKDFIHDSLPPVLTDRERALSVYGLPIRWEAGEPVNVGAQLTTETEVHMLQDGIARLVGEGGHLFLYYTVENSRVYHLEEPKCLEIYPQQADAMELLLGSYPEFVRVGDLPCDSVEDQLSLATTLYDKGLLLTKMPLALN

## CCN(CCN(C)C)C(=O)CNCc1cc(C(N)=O)ccn1 [KDOAM-25]
[1]
  IC50: > 100 µM
[2]
  IC50: < 0.1 µM
[3]
  IC50: ≥ 4.8 µM
[4]
  inhibition at 10 µM: -6%
[5]
  inhibition at 10 µM: -3%
[6]
  inhibition at 10 µM: -8%
[7]
  inhibition at 10 µM: -8%
[8]
  inhibition at 10 µM: 2%
[9]
  inhibition at 10 µM: -10%
